Experimental data reported in PMC3673936, “Molecular Characterization and Functions of Fatty Acid and Retinoid Binding Protein Gene (Ab-far-1) in Aphelenchoides besseyi” (PLoS ONE, 2013).

target: T1, rAb-FAR-1 (Aphelenchoides besseyi, UniProt R9QS34); test: fluorescence titration; assay type: binding
T1 construct: E. coli BL21(DE3), pET-32a (BamHI/XhoI), N-terminal His-tag fusion, Ni-purified; ORF 181 aa with predicted signal peptide; called full-length, primer FARf-BamHI lacks ATG at its start
T1 sequence (R9QS34 entry or part of it): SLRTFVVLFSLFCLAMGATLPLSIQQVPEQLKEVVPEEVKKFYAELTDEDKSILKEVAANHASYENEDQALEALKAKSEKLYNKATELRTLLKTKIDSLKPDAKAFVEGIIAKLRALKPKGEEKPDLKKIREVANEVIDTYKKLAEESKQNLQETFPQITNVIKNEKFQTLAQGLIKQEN

First: CN(C)c1cccc2c(S(=O)(=O)NCCCCCCCCCCC(=O)O)cccc12 [DAUDA, 11-((5-dimethylaminonaphthalene-1-sulfonyl)amino) undecannoic acid]
Second: CC\C=C/C=C/C=C/C=C\CCCCCCCC(=O)O [cis-parinaric acid]
The Kd of the first is 2-fold lower: 3.4 µM for the first, 6.69 µM for the second. The first binds more tightly here.

`CC1=C(/C=C/C(C)=C/C=C/C(C)=C/CO)C(C)(C)CCC1` [retinol] gave a Kd of 3.41 µM.
